This note sets out measurements from patent publication US20130102593A1, “PYRROLIDINE COMPOUNDS WHICH INHIBIT BETA-SECRETASE ACTIVITY AND METHODS OF USE THEREOF” (priority 2008, published 2013).

For orientation: IC50 means the concentration at which inhibition is half-maximal.

The subject of one experiment is Aβ production. The experiment is described as follows: Cellular Aβ IC50 determination (memapsin 2 activity in a cellular assay of Aβ production). It is filed as cell-based, Chinese hamster. The settings on record: Cricetulus griseus; CHO cells over-expressing human APP695, Aβ40 ELISA; read-out: M2 IC50. Here is the method:
The potency of compounds against memapsin 2 activity was determined in a cellular assay of Aβ production. […] Chinese hamster ovary cells that over-express human APP695 with the London and Swedish mutations were seeded in multi-well plates at 10% confluency. Compounds are dissolved in DMSO to concentrations near 1 mM, and diluted into culture media to a final concentration near 4 μM (final 0.4% DMSO). Compounds were diluted serially and applied to cells in multi-well plates 48 h after seeding. Incubation was continued in 5% CO2 at 37° C. for 24 h. Aliquots were removed and assayed for […] content using a sandwich ELISA (BioSource International). Amount of Aβ40 over the range of concentration of compounds, relative to control incubations, were fit to a 4-parameter IC50 model.
For orientation: ELISA stands for enzyme-linked immunosorbent assay.
As to `Cc1csc([C@H]2CCCN2C(=O)c2cc(C(=O)N[C@@H](Cc3ccccc3)[C@H](O)[C@H]3C[C@@H](OCc4ccccc4)CN3)cc(-n3cccc3)c2)n1` [1-25, N-((1R,2S)-1-((2R,4R)-4-(benzyloxy)pyrrolidin-2-yl)-1-hydroxy-3-phenylpropan-2-yl)-3-((R)-2-(4-methylthiazol-2-yl)pyrrolidine-1-carbonyl)-5-(1H-pyrrol-1-yl)benzamide], the IC50 stood at 0.0556 µM.

Staying with this experiment, now noted: Cricetulus griseus; Chinese hamster ovary cells over-expressing human APP695 with London and Swedish mutations, 24 h, Aβ40 sandwich ELISA; read-out: M2 IC50.
For `Cc1csc([C@H]2CCCN2C(=O)c2cc(C(=O)N[C@@H](Cc3ccccc3)[C@H](O)[C@H]3CCCN3)cc(-c3ncco3)c2)n1` [1-19, N-((1R,2S)-1-hydroxy-3-phenyl-1-((R)-pyrrolidin-2-yl)propan-2-yl)-3-((R)-2-(4-methylthiazol-2-yl)pyrrolidine-1-carbonyl)-5-(oxazol-2-yl)benzamide], the IC50 is under 0.5 µM. Still for that read-out and setting: the figure for `Cc1csc([C@H]2CCCN2C(=O)c2cc(C(=O)N[C@@H](Cc3ccccc3)[C@H](O)[C@H]3C[C@@H](OCc4ccccc4)CN3)cc(-n3cccc3)c2)n1` [1-25, N-((1R,2S)-1-((2R,4R)-4-(benzyloxy)pyrrolidin-2-yl)-1-hydroxy-3-phenylpropan-2-yl)-3-((R)-2-(4-methylthiazol-2-yl)pyrrolidine-1-carbonyl)-5-(1H-pyrrol-1-yl)benzamide] is under 0.5 µM; for `Cc1csc([C@H]2CCCN2C(=O)c2cc(C(=O)N[C@@H](Cc3ccccc3)[C@H](O)CNCc3cncc(C(C)C)c3)cc(-c3ccco3)c2)n1` [2-2, 3-(furan-2-yl)-N-((2S,3R)-3-hydroxy-4-((5-isopropylpyridin-3-yl)methylamino)-1-phenylbutan-2-yl)-5-((R)-2-(4-methylthiazol-2-yl)pyrrolidine-1-carbonyl)benzamide, reference compound] it is under 0.5 µM; for `Cc1coc([C@H]2CCCN2C(=O)c2cccc(C(=O)N[C@@H](Cc3ccccc3)[C@H](O)CNCc3cncc(C(C)(C)C)c3)c2)n1` [2-4, N-((2S,3R)-4-((5-tert-butylpyridin-3-yl)methylamino)-3-hydroxy-1-phenylbutan-2-yl)-3-((R)-2-(4-methyloxazol-2-yl)pyrrolidine-1-carbonyl)benzamide, reference compound] it is under 0.5 µM. Same read-out and setting: the same measure for `Cc1coc([C@H]2CCCN2C(=O)c2cc(C(=O)N[C@@H](Cc3ccccc3)[C@H](O)[C@H]3CCCN3)cc(-c3cnccn3)c2)n1` [1-21, N-((1R,2S)-1-hydroxy-3-phenyl-1-((R)-pyrrolidin-2-yl)propan-2-yl)-3-((R)-2-(4-methyloxazol-2-yl)pyrrolidine-1-carbonyl)-5-(pyrazin-2-yl)benzamide]: under 0.5 µM; for `Cc1csc([C@H]2CCCN2C(=O)c2cc(C(=O)N[C@@H](Cc3ccccc3)[C@H](O)[C@H]3CCCN3)cc(N3CCC(F)(F)CC3)c2)n1` [1-46, 3-(4,4-difluoropiperidin-1-yl)-N-((1R,2S)-1-hydroxy-3-phenyl-1-((R)-pyrrolidin-2-yl)propan-2-yl)-5-((R)-2-(4-methylthiazol-2-yl)pyrrolidine-1-carbonyl)benzamide]: 0.5 to 1 µM. In the case of `Cc1csc([C@H]2CCCN2C(=O)c2cc(C(=O)N[C@@H](Cc3ccccc3)[C@H](O)[C@H]3CCCN3)cc(-c3cnccn3)c2)n1` [1-20, N-((1R,2S)-1-hydroxy-3-phenyl-1-((R)-pyrrolidin-2-yl)propan-2-yl)-3-((R)-2-(4-methylthiazol-2-yl)pyrrolidine-1-carbonyl)-5-(pyrazin-2-yl)benzamide], the IC50 was under 0.5 µM. Same read-out and setting: the same measure for `Cc1csc([C@H]2CCCN2C(=O)c2cc(C(=O)N[C@@H](Cc3ccccc3)[C@H](O)[C@H]3CCCN3)cc(N(C)S(C)(=O)=O)c2)n1` [1-23, N-((1R,2S)-1-hydroxy-3-phenyl-1-((R)-pyrrolidin-2-yl)propan-2-yl)-3-(N-methylmethylsulfonamido)-5-((R)-2-(4-methylthiazol-2-yl)pyrrolidine-1-carbonyl)benzamide]: under 0.5 µM; for `Cc1csc([C@H]2CCCN2C(=O)c2cc(CF)cc(C(=O)N[C@@H](Cc3ccccc3)[C@H](O)[C@H]3C[C@@H](OCc4ccccc4)CN3)c2)n1` [1-36, N-((1R,2S)-1-((2R,4R)-4-(benzyloxy)pyrrolidin-2-yl)-1-hydroxy-3-phenylpropan-2-yl)-3-(fluoromethyl)-5-((R)-2-(4-methylthiazol-2-yl)pyrrolidine-1-carbonyl)benzamide]: under 0.5 µM; for `Cc1csc([C@H]2CCCN2C(=O)c2cccc(C(=O)N[C@@H](Cc3ccccc3)[C@H](O)[C@H]3CC[C@@H](C)N3)c2)n1` [1-51, N-((1R,2S)-1-hydroxy-1-((2R,5R)-5-methylpyrrolidin-2-yl)-3-phenylpropan-2-yl)-3-((R)-2-(4-methylthiazol-2-yl)pyrrolidine-1-carbonyl)benzamide]: over 1 µM. Same read-out and setting: the same measure for `Cc1csc(CN(C)C(=O)c2cc(C(=O)N[C@@H](Cc3ccccc3)[C@H](O)[C@H]3CCCN3)cc(-c3cnco3)c2)n1` [1-12, N1-((1R,2S)-1-hydroxy-3-phenyl-1-((R)-pyrrolidin-2-yl)propan-2-yl)-N3-methyl-N3-((4-methylthiazol-2-yl)methyl)-5-(oxazol-5-yl)isophthalamide]: over 1 µM. The same measure, in the same setting: the figure for `COc1cc(C(=O)N[C@@H](Cc2ccccc2)[C@H](O)[C@H]2CCCN2)cc(C(=O)N2CCC[C@@H]2c2nc(C)cs2)c1` [1-34, N-((1R,2S)-1-hydroxy-3-phenyl-1-((R)-pyrrolidin-2-yl)propan-2-yl)-3-methoxy-5-((R)-2-(4-methylthiazol-2-yl)pyrrolidine-1-carbonyl)benzamide] is over 1 µM.

For the compound `Cc1csc([C@H]2CCCN2C(=O)c2cncc(C(=O)N[C@@H](Cc3ccccc3)[C@H](O)CNCc3cc(Cl)nc(N(C)C)c3)c2)n1` [2-1, N-((2S,3R)-4-((2-chloro-6-(dimethylamino)pyridin-4-yl)methylamino)-3-hydroxy-1-phenylbutan-2-yl)-5-((R)-2-(4-methylthiazol-2-yl)pyrrolidine-1-carbonyl)nicotinamide, reference compound], the half-maximal inhibitory concentration (IC50) was under 0.5 µM. In the case of `Cc1cc(C(=O)N[C@@H](Cc2ccccc2)[C@H](O)[C@H]2CCCN2C(=O)OC(C)(C)C)cc(C(=O)N2CCC[C@@H]2c2nc(C)co2)c1` [1-6, (R)-tert-butyl 2-((1S,2S)-1-hydroxy-2-(3-methyl-5-((R)-2-(4-methyloxazol-2-yl)pyrrolidine-1-carbonyl)benzamido)-3-phenylpropyl)pyrrolidine-1-carboxylate], the IC50 is over 1 µM.

Regarding `Cc1coc([C@H]2CCCN2C(=O)c2cc(C(=O)N[C@@H](Cc3ccccc3)[C@H](O)[C@H]3CCCN3)cc(-c3ccccn3)c2)n1` [1-24, N-((1R,2S)-1-hydroxy-3-phenyl-1-((R)-pyrrolidin-2-yl)propan-2-yl)-3-((R)-2-(4-methyloxazol-2-yl)pyrrolidine-1-carbonyl)-5-(pyridin-2-yl)benzamide], the IC50 is under 0.5 µM. Still for that read-out and setting: the same measure for `Cc1csc([C@H]2CCCN2C(=O)c2cc(C(=O)N[C@@H](Cc3ccccc3)[C@H](O)[C@H]3CCCN3)cc(C3CC3)c2)n1` [1-50, 3-cyclopropyl-N-((1R,2S)-1-hydroxy-3-phenyl-1-((R)-pyrrolidin-2-yl)propan-2-yl)-5-((R)-2-(4-methylthiazol-2-yl)pyrrolidine-1-carbonyl)benzamide]: over 1 µM. Still for that read-out and setting: the same measure for `Cc1csc([C@H]2CCCN2C(=O)c2cccc(C(=O)N[C@@H](Cc3ccccc3)[C@H](O)[C@H]3C[C@@H](OCc4ccccc4)CN3)c2)n1` [1-22, N-((1R,2S)-1-((2R,4R)-4-(benzyloxy)pyrrolidin-2-yl)-1-hydroxy-3-phenylpropan-2-yl)-3-((R)-2-(4-methylthiazol-2-yl)pyrrolidine-1-carbonyl)benzamide]: under 0.5 µM. For the compound `Cc1cc(C(=O)N[C@@H](Cc2ccccc2)[C@H](O)[C@H]2CCCN2)cc(C(=O)N2CCC[C@@H]2c2nc(C)co2)c1` [1-8, N-((1R,2S)-1-hydroxy-3-phenyl-1-((R)-pyrrolidin-2-yl)propan-2-yl)-3-methyl-5-((R)-2-(4-methyloxazol-2-yl)pyrrolidine-1-carbonyl)benzamide], the 50% inhibitory concentration (IC50) is over 1 µM.

For the compound `Cc1csc([C@H]2CCCN2C(=O)c2cc(C(=O)N[C@@H](Cc3cc(F)cc(F)c3)[C@H](O)[C@H]3CCCN3)cc(-c3ncco3)c2)n1` [1-49, N-((1R,2S)-3-(3,5-difluorophenyl)-1-hydroxy-1((R)-pyrrolidin-2-yl)propan-2-yl)-3-((R)-2-(4-methylthiazol-2-yl)pyrrolidine-1-carbonyl)-5-(oxazol-2-yl)benzamide], the concentration for half-maximal inhibition (IC50) was under 0.5 µM. For `Cc1csc([C@H]2CCCN2C(=O)c2cc(C(=O)N[C@@H](Cc3ccccc3)[C@H](O)[C@H]3CCCN3)cc(N3CCCC3=O)c2)n1` [1-39, N-((1R,2S)-1-hydroxy-3-phenyl-1-((R)-pyrrolidin-2-yl)propan-2-yl)-3-((R)-2-(4-methylthiazol-2-yl)pyrrolidine-1-carbonyl)-5-(2-oxopyrrolidin-1-yl)benzamide], the concentration for half-maximal inhibition (IC50) was under 0.5 µM. On the same count and under the same terms, the same measure for `Cc1csc([C@H]2CCCN2C(=O)c2cc(C(=O)N[C@@H](Cc3ccccc3)[C@H](O)[C@H]3CCCN3)cc(N(C)C)c2)n1` [1-42, 3-(dimethylamino)-N-((1R,2S)-1-hydroxy-3-phenyl-1-((R)-pyrrolidin-2-yl)propan-2-yl)-5-((R)-2-(4-methylthiazol-2-yl)pyrrolidine-1-carbonyl)benzamide]: over 1 µM; for `Cc1csc(CN(C)C(=O)c2cc(C(=O)N[C@@H](Cc3ccccc3)[C@H](O)[C@H]3CCCN3)cc(-n3cccc3)c2)n1` [1-13, N1-((1R,2S)-1-hydroxy-3-phenyl-1-((R)-pyrrolidin-2-yl)propan-2-yl)-N3-methyl-N3-((4-methylthiazol-2-yl)methyl)-5-(1H-pyrrol-1-yl)isophthalamide]: 0.5 to 1 µM. For the compound `Cc1csc([C@H]2CCCN2C(=O)c2cc(C(=O)N[C@@H](Cc3ccccc3)[C@H](O)[C@H]3C[C@@H](OCc4ccccc4)CN3)cc(-c3ncco3)c2)n1` [1-52, N-((1R,2S)-1-((2R,4R)-4-(benzyloxy)pyrrolidin-2-yl)-1-hydroxy-3-phenylpropan-2-yl)-3-((R)-2-(4-methylthiazol-2-yl)pyrrolidine-1-carbonyl)-5-(oxazol-2-yl)benzamide], the IC50 is under 0.5 µM.
